Reference: PubChem BioAssay (NCI)
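Growth conditions: 96-well plates. Treatment: test compound, 48 hours, 5 concentrations. Analysis: linear interpolation between bracketing concentrations; unreached endpoints set to highest concentration. GI50: concentration for 50% inhibition of growth. Definition used: TGI = concentration required for complete inhibition of growth.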

How the values were obtained:
Experiment in all cases: inhibition of tumour cell growth, NCI panel, 48 h
HT29 colon = system: HT29 colon
SN12C renal = system: SN12C renal
OVCAR-3 ovarian = system: OVCAR-3 ovarian
MDA-MB-435 = system: MDA-MB-435
UACC-257 melanoma = system: UACC-257 melanoma
CCRF-CEM leukemia = system: CCRF-CEM leukemia
K-562 leukemia = system: K-562 leukemia
A498 renal = system: A498 renal
IGROV1 ovarian = system: IGROV1 ovarian
HL-60(TB) leukemia = system: HL-60(TB) leukemia
HOP-62 NSCLC = system: HOP-62 NSCLC
RPMI-8226 leukemia = system: RPMI-8226 leukemia
U251 CNS = system: U251 CNS
UACC-62 melanoma = system: UACC-62 melanoma
SK-MEL-5 melanoma = system: SK-MEL-5 melanoma
T-47D breast = system: T-47D breast
OVCAR-8 ovarian = system: OVCAR-8 ovarian
OVCAR-4 ovarian = system: OVCAR-4 ovarian
MCF7 breast = system: MCF7 breast
DU-145 prostate = system: DU-145 prostate
SNB-75 CNS = system: SNB-75 CNS
SK-OV-3 ovarian = system: SK-OV-3 ovarian
NCI-H226 lung = system: NCI-H226 lung
SNB-19 CNS = system: SNB-19 CNS
SK-MEL-28 melanoma = system: SK-MEL-28 melanoma
SF-268 CNS = system: SF-268 CNS
MALME-3M melanoma = system: MALME-3M melanoma
HCT-15 colon = system: HCT-15 colon
MDA-MB-231 breast = system: MDA-MB-231 breast
RXF 393 renal = system: RXF 393 renal
PC-3 prostate = system: PC-3 prostate
COLO 205 colon = system: COLO 205 colon
HOP-92 NSCLC = system: HOP-92 NSCLC
MOLT-4 leukemia = system: MOLT-4 leukemia
786-0 renal = system: 786-0 renal
NCI-H522 lung = system: NCI-H522 lung
SF-539 CNS = system: SF-539 CNS
HS 578T breast = system: HS 578T breast
HCT-116 colon = system: HCT-116 colon
CAKI-1 renal = system: CAKI-1 renal
KM12 colon = system: KM12 colon
NCI/ADR-RES ovarian = system: NCI/ADR-RES ovarian
LOX IMVI melanoma = system: LOX IMVI melanoma
SF-295 CNS = system: SF-295 CNS
M14 melanoma = system: M14 melanoma
NCI-H460 lung = system: NCI-H460 lung
HCC-2998 colon = system: HCC-2998 colon
NCI-H23 lung = system: NCI-H23 lung
ACHN renal = system: ACHN renal
TK-10 renal = system: TK-10 renal
SW-620 colon = system: SW-620 colon
OVCAR-5 ovarian = system: OVCAR-5 ovarian
EKVX NSCLC = system: EKVX NSCLC
BT-549 breast = system: BT-549 breast
UO-31 renal = system: UO-31 renal
SR leukemia = system: SR leukemia
SK-MEL-2 melanoma = system: SK-MEL-2 melanoma
A549 NSCLC = system: A549 NSCLC

**Q.** Which GI50 (HT29 colon) does the source give for O=C1/C(=C/c2cccc(F)c2)CN(C(=O)C(Cl)Cl)C/C1=C\c1cccc(F)c1 here?
**A.** 113 nM

**Q.** And the TGI (HT29 colon)?
**A.** 764 nM

**Q.** And the GI50 (SN12C renal)?
**A.** 189 nM

**Q.** And the TGI (SN12C renal)?
**A.** 475 nM

**Q.** And the GI50 (OVCAR-3 ovarian)?
**A.** 190 nM

**Q.** And the TGI (OVCAR-3 ovarian)?
**A.** 410 nM

**Q.** And the GI50 (MDA-MB-435)?
**A.** 210 nM

**Q.** What about the TGI (MDA-MB-435) of the same molecule?
**A.** 491 nM

**Q.** And the GI50 (UACC-257 melanoma)?
**A.** 606 nM

**Q.** What about the TGI (UACC-257 melanoma) of the same molecule?
**A.** 1630 nM

**Q.** And the GI50 (CCRF-CEM leukemia)?
**A.** 34.5 nM

**Q.** And the TGI (CCRF-CEM leukemia)?
**A.** 17700 nM

**Q.** What about the GI50 (K-562 leukemia) of the same molecule?
**A.** 33.2 nM

**Q.** And the GI50 (A498 renal)?
**A.** 628 nM

**Q.** What about the TGI (A498 renal) of the same molecule?
**A.** 2050 nM

**Q.** And the GI50 (IGROV1 ovarian)?
**A.** 209 nM

**Q.** And the TGI (IGROV1 ovarian)?
**A.** 531 nM

**Q.** What about the GI50 (HL-60(TB) leukemia) of the same molecule?
**A.** 218 nM

**Q.** And the TGI (HL-60(TB) leukemia)?
**A.** 773 nM

**Q.** What about the GI50 (HOP-62 NSCLC) of the same molecule?
**A.** 353 nM

**Q.** And the TGI (HOP-62 NSCLC)?
**A.** 1190 nM

**Q.** And the GI50 (RPMI-8226 leukemia)?
**A.** 31.8 nM

**Q.** What about the TGI (RPMI-8226 leukemia) of the same molecule?
**A.** 169 nM

**Q.** And the GI50 (U251 CNS)?
**A.** 116 nM

**Q.** And the TGI (U251 CNS)?
**A.** 294 nM

**Q.** And the GI50 (UACC-62 melanoma)?
**A.** 191 nM

**Q.** What about the TGI (UACC-62 melanoma) of the same molecule?
**A.** 430 nM

**Q.** And the GI50 (SK-MEL-5 melanoma)?
**A.** 200 nM

**Q.** And the TGI (SK-MEL-5 melanoma)?
**A.** 431 nM

**Q.** And the GI50 (T-47D breast)?
**A.** 317 nM

**Q.** What about the TGI (T-47D breast) of the same molecule?
**A.** 1760 nM

**Q.** What about the GI50 (OVCAR-8 ovarian) of the same molecule?
**A.** 184 nM

**Q.** And the TGI (OVCAR-8 ovarian)?
**A.** 1130 nM

**Q.** And the GI50 (OVCAR-4 ovarian)?
**A.** 351 nM

**Q.** What about the TGI (OVCAR-4 ovarian) of the same molecule?
**A.** 1380 nM

**Q.** What about the GI50 (MCF7 breast) of the same molecule?
**A.** 40.5 nM

**Q.** And the TGI (MCF7 breast)?
**A.** 241 nM

**Q.** What about the GI50 (DU-145 prostate) of the same molecule?
**A.** 392 nM

**Q.** And the TGI (DU-145 prostate)?
**A.** 1360 nM

**Q.** And the GI50 (SNB-75 CNS)?
**A.** 392 nM

**Q.** What about the TGI (SNB-75 CNS) of the same molecule?
**A.** 1730 nM

**Q.** What about the GI50 (SK-OV-3 ovarian) of the same molecule?
**A.** 600 nM

**Q.** What about the TGI (SK-OV-3 ovarian) of the same molecule?
**A.** 1790 nM

**Q.** What about the GI50 (NCI-H226 lung) of the same molecule?
**A.** 259 nM

**Q.** What about the TGI (NCI-H226 lung) of the same molecule?
**A.** 685 nM

**Q.** And the GI50 (SNB-19 CNS)?
**A.** 204 nM

**Q.** What about the TGI (SNB-19 CNS) of the same molecule?
**A.** 604 nM

**Q.** What about the GI50 (SK-MEL-28 melanoma) of the same molecule?
**A.** 243 nM

**Q.** What about the TGI (SK-MEL-28 melanoma) of the same molecule?
**A.** 601 nM

**Q.** And the GI50 (SF-268 CNS)?
**A.** 427 nM

**Q.** What about the TGI (SF-268 CNS) of the same molecule?
**A.** 1750 nM

**Q.** What about the GI50 (MALME-3M melanoma) of the same molecule?
**A.** 218 nM

**Q.** What about the TGI (MALME-3M melanoma) of the same molecule?
**A.** 621 nM

**Q.** What about the GI50 (HCT-15 colon) of the same molecule?
**A.** 85.5 nM

**Q.** What about the TGI (HCT-15 colon) of the same molecule?
**A.** 312 nM

**Q.** What about the GI50 (MDA-MB-231 breast) of the same molecule?
**A.** 248 nM

**Q.** What about the TGI (MDA-MB-231 breast) of the same molecule?
**A.** 671 nM

**Q.** What about the GI50 (RXF 393 renal) of the same molecule?
**A.** 194 nM

**Q.** What about the TGI (RXF 393 renal) of the same molecule?
**A.** 397 nM

**Q.** And the GI50 (PC-3 prostate)?
**A.** 186 nM

**Q.** What about the TGI (PC-3 prostate) of the same molecule?
**A.** 539 nM

**Q.** And the GI50 (COLO 205 colon)?
**A.** 332 nM

**Q.** And the TGI (COLO 205 colon)?
**A.** 1160 nM

**Q.** And the GI50 (HOP-92 NSCLC)?
**A.** 499 nM

**Q.** And the TGI (HOP-92 NSCLC)?
**A.** 1440 nM

**Q.** And the GI50 (MOLT-4 leukemia)?
**A.** 90.5 nM

**Q.** What about the TGI (MOLT-4 leukemia) of the same molecule?
**A.** 3600 nM

**Q.** And the GI50 (786-0 renal)?
**A.** 217 nM

**Q.** What about the TGI (786-0 renal) of the same molecule?
**A.** 536 nM

**Q.** What about the GI50 (NCI-H522 lung) of the same molecule?
**A.** 202 nM

**Q.** And the TGI (NCI-H522 lung)?
**A.** 522 nM

**Q.** And the GI50 (SF-539 CNS)?
**A.** 265 nM

**Q.** What about the TGI (SF-539 CNS) of the same molecule?
**A.** 824 nM

**Q.** What about the GI50 (HS 578T breast) of the same molecule?
**A.** 303 nM

**Q.** What about the TGI (HS 578T breast) of the same molecule?
**A.** 1250 nM

**Q.** And the GI50 (HCT-116 colon)?
**A.** 63.4 nM

**Q.** What about the TGI (HCT-116 colon) of the same molecule?
**A.** 239 nM

**Q.** What about the GI50 (CAKI-1 renal) of the same molecule?
**A.** 389 nM

**Q.** What about the TGI (CAKI-1 renal) of the same molecule?
**A.** 1440 nM

**Q.** What about the GI50 (KM12 colon) of the same molecule?
**A.** 172 nM

**Q.** What about the TGI (KM12 colon) of the same molecule?
**A.** 476 nM

**Q.** And the GI50 (NCI/ADR-RES ovarian)?
**A.** 304 nM

**Q.** What about the TGI (NCI/ADR-RES ovarian) of the same molecule?
**A.** 1490 nM

**Q.** And the GI50 (LOX IMVI melanoma)?
**A.** 38.5 nM

**Q.** What about the TGI (LOX IMVI melanoma) of the same molecule?
**A.** 109 nM

**Q.** What about the GI50 (SF-295 CNS) of the same molecule?
**A.** 217 nM

**Q.** And the TGI (SF-295 CNS)?
**A.** 629 nM

**Q.** What about the GI50 (M14 melanoma) of the same molecule?
**A.** 258 nM

**Q.** And the TGI (M14 melanoma)?
**A.** 872 nM

**Q.** What about the GI50 (NCI-H460 lung) of the same molecule?
**A.** 318 nM

**Q.** What about the TGI (NCI-H460 lung) of the same molecule?
**A.** 1090 nM

**Q.** What about the GI50 (HCC-2998 colon) of the same molecule?
**A.** 272 nM

**Q.** And the TGI (HCC-2998 colon)?
**A.** 737 nM

**Q.** What about the GI50 (NCI-H23 lung) of the same molecule?
**A.** 234 nM

**Q.** And the TGI (NCI-H23 lung)?
**A.** 690 nM

**Q.** What about the GI50 (ACHN renal) of the same molecule?
**A.** 212 nM

**Q.** And the TGI (ACHN renal)?
**A.** 517 nM

**Q.** And the GI50 (TK-10 renal)?
**A.** 433 nM

**Q.** What about the TGI (TK-10 renal) of the same molecule?
**A.** 1450 nM

**Q.** And the GI50 (SW-620 colon)?
**A.** 32.5 nM

**Q.** What about the TGI (SW-620 colon) of the same molecule?
**A.** 125 nM

**Q.** What about the GI50 (OVCAR-5 ovarian) of the same molecule?
**A.** 290 nM

**Q.** And the TGI (OVCAR-5 ovarian)?
**A.** 887 nM

**Q.** What about the GI50 (EKVX NSCLC) of the same molecule?
**A.** 263 nM

**Q.** What about the TGI (EKVX NSCLC) of the same molecule?
**A.** 804 nM

**Q.** What about the GI50 (BT-549 breast) of the same molecule?
**A.** 252 nM

**Q.** And the TGI (BT-549 breast)?
**A.** 787 nM

**Q.** What about the GI50 (UO-31 renal) of the same molecule?
**A.** 176 nM

**Q.** What about the TGI (UO-31 renal) of the same molecule?
**A.** 387 nM

**Q.** What about the GI50 (SR leukemia) of the same molecule?
**A.** 29.6 nM

**Q.** What about the TGI (SR leukemia) of the same molecule?
**A.** 465 nM

**Q.** What about the GI50 (SK-MEL-2 melanoma) of the same molecule?
**A.** 343 nM

**Q.** What about the TGI (SK-MEL-2 melanoma) of the same molecule?
**A.** 1270 nM

**Q.** What about the GI50 (A549 NSCLC) of the same molecule?
**A.** 655 nM

**Q.** What about the TGI (A549 NSCLC) of the same molecule?
**A.** 2140 nM
